The source of these data is patent US9340539B2, “Hepatitis C inhibitor compounds” (priority 2011, dated 2016).

For orientation: EC50 means the concentration that produces a half-maximal response.

The subject of the test is HCVpp (HCV E1/E2, isolate Con1) entry into Hep3B2.1-7 cells. The experiment in a line: microbe, parasite or virus in culture. The class given is cell-based. Particulars: Hepatitis C virus, 72 h, read-out: EC50 (nM) (Ex. 58).
In the case of `CC1(C)CC(C)(C)c2c([nH]c3cnc(C(=O)NCc4ccccn4)cc23)C1=O` [Compound 9004], the EC50 turned out to be 85 nM.

Turning to `CC1(C)CC(C)(C)c2c([nH]c3ccc(-c4nnc(NC5CCS(=O)(=O)C5)o4)cc23)C1=O` (stereo not drawn) [Compound 1103], the EC50 amounted to 34 nM.

As for `CC1(C)CC(C)(C)c2c([nH]c3ccc(C(=O)NC4CCN(C(=O)c5ccccn5)C4)cc23)C1=O` (stereo not drawn) [Compound 2026], the EC50 worked out at 36 nM.

Take `CC1(C)CC2(CCC2)c2c([nH]c3ccc(C(=O)NC4CCN(C(=O)c5nc[nH]n5)C4)cc23)C1=O` (stereo not drawn) [Compound 6016]: the EC50 came to 3.4 nM.

On to `COCC1(C)CC(C)(C)c2c([nH]c3ccc(C(=O)NC4CCN(C(=O)c5n[nH]c(N)n5)C4)cc23)C1=O` (stereo not drawn) [Compound 5017], for which the EC50 stood at 9.3 nM.

Consider `CN1CCC[C@H](NC(=O)c2ccc3[nH]c4c(c3c2)C(C)(C)CC(C)(C)C4=O)C1` [Compound 3006], for which the EC50 amounted to 102 nM.

Take `O=C(NC1CCS(=O)(=O)C1)c1ccc2[nH]c3c(c2c1)C1(CCCC3=O)CC1` (stereo not drawn) [Compound 1104]: the EC50 was 122 nM.

Take `CC1(C)CC2(CC2)C(=O)c2[nH]c3ccc(C(=O)NC4CCN(C(=O)c5nc[nH]n5)C4)cc3c21` (stereo not drawn) [Compound 5008]: the EC50 was found to be 22 nM.

On to `CC1(C)CC(C)(C)c2c([nH]c3ccc(C(=O)NC4CCN(CCF)C4)cc23)C1=O` (stereo not drawn) [Compound 2003], for which the EC50 worked out at 117 nM.

Consider `COC(=O)c1ccc2[nH]c3c(c2c1)C(C)(C)CC(C)(C)C3=O` [Compound 1107], for which the EC50 stood at 195 nM.

For `CC1CC(C)(C)c2c([nH]c3ccc(C(=O)NC4CCS(=O)(=O)C4)cc23)C1=O` (stereo not drawn) [Compound 5014], the EC50 was determined as 187 nM.

As to `CC1(C)CC2(CCOCC2)C(=O)c2[nH]c3ccc(C(=O)NC4CCS(=O)(=O)C4)cc3c21` (stereo not drawn) [Compound 5003], the EC50 was found to be 385 nM.

Regarding `CC1(C)CC2(CC2)c2c([nH]c3ccc(C(=O)NCCCn4cncn4)cc23)C1=O` [Compound 6001], the EC50 was 66 nM.

Consider `CC1(C)CC(C)(C)c2c([nH]c3ccc(C(=O)NC4CCS(=O)(=O)CC4)cc23)C1=O` [Compound 7008], for which the EC50 came to 201 nM.

With `Cn1cncc1CNC(=O)CNC(=O)c1ccc2[nH]c3c(c2c1)C(C)(C)CC(C)(C)C3=O` [Compound 7010], the EC50 was 126 nM.

`CC1(C)CC(C)(C)c2c([nH]c3ccc(C(=O)Nc4cnccn4)cc23)C1=O` [Compound 7050]: the EC50 was 88 nM.

For the molecule `CC1(C)CC(C)(C)c2c([nH]c3ccc(C(=O)N[C@H]4CC[C@H](NCC5CC5)CC4)cc23)C1=O` [Compound 7019], the half-maximal effective concentration (EC50) amounted to 82 nM.

As for `CC1(C)CC(C)(C)c2c([nH]c3ccc(C(=O)NC4CCN(S(C)(=O)=O)C4)cc23)C1=O` (stereo not drawn) [Compound 2058], the EC50 turned out to be 39 nM.
